The target of experiment [1] is 5-hydroxytryptamine receptor 2A (Mus musculus, UniProt P35363). Type of experiment: functional, cell-based.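 Also: CHO-K1 cells with tagged receptor and beta-arrestin; agonist potency measured as compound-induced activation of the receptor.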
The target of another experiment is Mu-type opioid receptor (Homo sapiens, UniProt P35372). It counts as functional, cell-based.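 Also: U2OS cells with beta-arrestin recruitment to OPRM1 by beta-gal complementation.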
Experiment [2] concerns the target Arf-GAP with SH3 domain, ANK repeat and PH domain-containing protein 1 (Homo sapiens, UniProt Q9ULH1). Type of experiment: functional.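 Also: biochemical fluorescence polarization dose–response screen measuring inhibition of ASAP1; ASAP1 GAP domain stimulating GTP hydrolysis by truncated human ARF1.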
The target in experiment [3] is ADP-ribosylation factor GTPase-activating protein 1 (Rattus norvegicus, UniProt Q62848). Put plainly: Fluorescence polarization-based biochemical high throughput dose response screening assay to identify inhibitors of ADP-ribosylation factor GTPase activating protein 1 (ARFGAP1). Type of experiment: functional. (In fluorescence polarisation assays a small probe gives low polarisation when free and higher when bound to something large.)

In experiment [4] the target is Beta-2 adrenergic receptor (Homo sapiens, UniProt P07550). The experiment in a line: ADRB2 activation measured by internalization – cell-based, FAP fluorogen, flow cytometry, cherry pick 1, dose response (AID 588763). Type of experiment: functional. In general terms: A flow cytometer gives signals particle by particle.
A short description of experiment [5]: Fluorescence-based cell-based high throughput dose response assay for inhibitors of the interaction of nucleotide-binding oligomerization domain containing 2 (NOD2) and the receptor-interacting serine-threonine kinase 2 (RIPK2). It counts as functional. Conditions: Homo sapiens.
In experiment [6] the target is T1, Small ubiquitin-related modifier 1 (Homo sapiens, UniProt P63165). Put plainly: SUMO1 protein interaction blockers, potency – biochemical, fluorescence polarization, uHTS hits, dose response (AID 624382). It counts as functional. The settings on record: read-out: IC50_Mean.
Experiment [7] deals with T1, Small ubiquitin-related modifier 1. Put plainly: SUMO1 protein-protein binding blockers, potency – biochemical, FRET, dose response (AID 624383). Type of experiment: functional. Conditions: read-out: IC50_Mean.
The target in experiment [8] is Nuclear receptor subfamily 5 group A member 2 (Homo sapiens, UniProt O00482). Type of experiment: functional, cell-based.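 Also: HEK293T cells transfected with LRH-1 and a StAR promoter luciferase reporter; potency for inhibitors that lower LRH-1 driven reporter light.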
In another experiment the target is Steroidogenic factor 1 (Homo sapiens, UniProt Q13285). Put plainly: Counterscreen for inverse agonists of the liver receptor homolog-1 (LRH-1; NR5A2): Luminescence-based cell-based high throughput dose response assay to identify inverse agonists of the Steroidogenic Factor 1 Nuclear Receptor (SF1; NR5A1). It counts as functional.
The nature of experiment [9]: nonselective StAR promoter luciferase inhibitors – cell-based, luminescence, luciferase reporter, counter-screen for LRH-1 inverse agonist project, dose response (AID 651969). Type of experiment: functional. In general terms: Reporter assays use an easily measured gene product as a stand-in for the process of interest.
Experiment [10] can be described thus: viability loss in HEK293T cells – cell-based, cherry-picks, cytotoxicity control for HIV Vif inhibitor project, dose response (AID 652208). It counts as functional.
A further experiment concerns Vero. Put plainly: viability loss in Vero cells – cell-based, plate reader, cherry-pick samples, cytotoxicity control, dose response (AID 687020). The settings on record: Chlorocebus sabaeus. Type of experiment: functional.

Calls of active or inactive are those of the source.

T1 sequence (P63165 whole entry): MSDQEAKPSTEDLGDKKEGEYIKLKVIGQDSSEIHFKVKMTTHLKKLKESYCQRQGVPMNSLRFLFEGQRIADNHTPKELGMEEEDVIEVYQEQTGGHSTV
Sequence of Nuclear receptor subfamily 5 group A member 2 (O00482 whole entry): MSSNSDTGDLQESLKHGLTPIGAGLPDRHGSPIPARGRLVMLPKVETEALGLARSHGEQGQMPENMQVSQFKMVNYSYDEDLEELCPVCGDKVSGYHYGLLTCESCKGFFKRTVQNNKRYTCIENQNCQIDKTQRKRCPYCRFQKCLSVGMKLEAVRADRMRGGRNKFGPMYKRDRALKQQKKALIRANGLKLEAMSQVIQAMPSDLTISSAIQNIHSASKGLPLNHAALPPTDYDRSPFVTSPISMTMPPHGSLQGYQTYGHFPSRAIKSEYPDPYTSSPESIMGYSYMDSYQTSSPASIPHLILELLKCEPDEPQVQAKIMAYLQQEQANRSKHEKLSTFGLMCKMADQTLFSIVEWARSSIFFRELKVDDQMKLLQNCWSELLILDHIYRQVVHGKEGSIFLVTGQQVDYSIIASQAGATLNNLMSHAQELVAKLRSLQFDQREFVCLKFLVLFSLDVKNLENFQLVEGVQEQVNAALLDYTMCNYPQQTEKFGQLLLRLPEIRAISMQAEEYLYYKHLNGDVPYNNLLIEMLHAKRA
Sequence of ADP-ribosylation factor GTPase-activating protein 1 (Q62848 whole entry): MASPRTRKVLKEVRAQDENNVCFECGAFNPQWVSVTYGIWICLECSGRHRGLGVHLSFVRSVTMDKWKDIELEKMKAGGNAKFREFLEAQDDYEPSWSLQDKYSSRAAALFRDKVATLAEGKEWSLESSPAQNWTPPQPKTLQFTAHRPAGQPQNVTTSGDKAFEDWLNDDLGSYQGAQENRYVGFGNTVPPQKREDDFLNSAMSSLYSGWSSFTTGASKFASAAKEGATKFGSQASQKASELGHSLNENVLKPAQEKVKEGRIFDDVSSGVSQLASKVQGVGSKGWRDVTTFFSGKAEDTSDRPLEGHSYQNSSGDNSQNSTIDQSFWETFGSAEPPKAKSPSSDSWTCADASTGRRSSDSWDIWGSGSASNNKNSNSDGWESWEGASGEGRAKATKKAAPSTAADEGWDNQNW
Sequence of Arf-GAP with SH3 domain, ANK repeat and PH domain-containing protein 1 (Q9ULH1 whole entry, the tested form may be a part): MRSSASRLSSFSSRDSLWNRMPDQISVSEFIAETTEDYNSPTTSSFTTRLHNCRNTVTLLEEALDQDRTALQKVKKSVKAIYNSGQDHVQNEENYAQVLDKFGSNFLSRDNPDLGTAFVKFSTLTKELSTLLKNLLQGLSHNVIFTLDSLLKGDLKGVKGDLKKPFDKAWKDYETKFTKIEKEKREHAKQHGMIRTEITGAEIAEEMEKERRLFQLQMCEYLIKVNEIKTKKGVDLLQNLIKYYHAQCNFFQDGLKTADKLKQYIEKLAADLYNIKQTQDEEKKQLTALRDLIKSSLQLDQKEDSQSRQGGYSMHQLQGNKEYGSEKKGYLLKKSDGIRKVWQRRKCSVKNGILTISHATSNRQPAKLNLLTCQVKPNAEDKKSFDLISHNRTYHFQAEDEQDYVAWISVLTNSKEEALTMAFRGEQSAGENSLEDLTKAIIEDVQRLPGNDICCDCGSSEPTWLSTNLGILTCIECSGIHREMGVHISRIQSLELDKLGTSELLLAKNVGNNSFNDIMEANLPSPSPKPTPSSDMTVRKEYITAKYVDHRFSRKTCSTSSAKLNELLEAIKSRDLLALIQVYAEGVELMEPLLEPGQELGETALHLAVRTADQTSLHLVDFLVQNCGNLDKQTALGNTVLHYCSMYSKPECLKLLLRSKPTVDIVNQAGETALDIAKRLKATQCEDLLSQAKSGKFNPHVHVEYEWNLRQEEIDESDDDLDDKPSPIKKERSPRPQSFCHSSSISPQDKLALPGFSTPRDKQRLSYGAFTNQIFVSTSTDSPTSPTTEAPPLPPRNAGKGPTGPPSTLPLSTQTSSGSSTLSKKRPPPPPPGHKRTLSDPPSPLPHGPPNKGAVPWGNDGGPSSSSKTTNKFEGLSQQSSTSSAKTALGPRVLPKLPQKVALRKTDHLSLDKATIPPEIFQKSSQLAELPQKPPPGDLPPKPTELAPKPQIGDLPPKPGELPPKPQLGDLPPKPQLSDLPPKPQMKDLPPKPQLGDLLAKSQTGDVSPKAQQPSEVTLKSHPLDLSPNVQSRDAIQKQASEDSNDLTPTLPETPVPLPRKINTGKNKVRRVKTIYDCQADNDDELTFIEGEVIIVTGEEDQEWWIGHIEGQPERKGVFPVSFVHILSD
Sequence of Mu-type opioid receptor (P35372 whole entry, the tested form may be a part): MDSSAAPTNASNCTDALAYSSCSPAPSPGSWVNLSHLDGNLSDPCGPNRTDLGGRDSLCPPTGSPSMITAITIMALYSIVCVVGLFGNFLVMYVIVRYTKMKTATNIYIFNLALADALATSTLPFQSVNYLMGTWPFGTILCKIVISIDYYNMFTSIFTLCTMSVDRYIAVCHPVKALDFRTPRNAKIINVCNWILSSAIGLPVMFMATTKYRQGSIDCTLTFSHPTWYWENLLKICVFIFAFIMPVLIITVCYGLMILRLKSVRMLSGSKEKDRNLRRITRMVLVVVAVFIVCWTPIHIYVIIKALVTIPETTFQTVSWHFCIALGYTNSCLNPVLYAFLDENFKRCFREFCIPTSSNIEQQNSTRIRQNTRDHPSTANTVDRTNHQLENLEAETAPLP
Sequence of 5-hydroxytryptamine receptor 2A (P35363 whole entry): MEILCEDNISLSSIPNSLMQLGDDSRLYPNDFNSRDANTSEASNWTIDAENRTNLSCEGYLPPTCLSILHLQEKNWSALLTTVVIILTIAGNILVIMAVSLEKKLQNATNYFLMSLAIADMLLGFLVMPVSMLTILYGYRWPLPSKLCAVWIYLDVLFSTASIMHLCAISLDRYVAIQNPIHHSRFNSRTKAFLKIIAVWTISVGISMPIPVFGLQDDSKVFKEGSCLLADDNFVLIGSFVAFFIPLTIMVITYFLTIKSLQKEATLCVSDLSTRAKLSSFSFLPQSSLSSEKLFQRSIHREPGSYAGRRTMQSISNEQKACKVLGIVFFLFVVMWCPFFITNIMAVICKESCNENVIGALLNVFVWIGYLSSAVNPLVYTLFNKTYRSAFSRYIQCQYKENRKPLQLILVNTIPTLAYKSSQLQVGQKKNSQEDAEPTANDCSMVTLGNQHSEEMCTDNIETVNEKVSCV
Sequence of Beta-2 adrenergic receptor (P07550 whole entry, the tested form may be a part): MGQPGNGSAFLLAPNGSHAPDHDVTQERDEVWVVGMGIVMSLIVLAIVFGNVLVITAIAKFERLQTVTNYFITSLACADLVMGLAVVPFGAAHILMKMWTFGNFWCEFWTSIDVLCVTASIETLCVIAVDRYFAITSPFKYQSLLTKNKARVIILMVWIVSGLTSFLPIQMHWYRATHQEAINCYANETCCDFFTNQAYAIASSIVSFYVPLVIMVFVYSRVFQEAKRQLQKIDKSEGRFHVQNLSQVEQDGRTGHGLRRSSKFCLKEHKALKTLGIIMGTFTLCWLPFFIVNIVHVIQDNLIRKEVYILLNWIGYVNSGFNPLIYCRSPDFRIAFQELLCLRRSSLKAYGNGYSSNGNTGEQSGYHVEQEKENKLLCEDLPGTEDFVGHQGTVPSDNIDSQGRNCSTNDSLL
Sequence of Steroidogenic factor 1 (Q13285 whole entry): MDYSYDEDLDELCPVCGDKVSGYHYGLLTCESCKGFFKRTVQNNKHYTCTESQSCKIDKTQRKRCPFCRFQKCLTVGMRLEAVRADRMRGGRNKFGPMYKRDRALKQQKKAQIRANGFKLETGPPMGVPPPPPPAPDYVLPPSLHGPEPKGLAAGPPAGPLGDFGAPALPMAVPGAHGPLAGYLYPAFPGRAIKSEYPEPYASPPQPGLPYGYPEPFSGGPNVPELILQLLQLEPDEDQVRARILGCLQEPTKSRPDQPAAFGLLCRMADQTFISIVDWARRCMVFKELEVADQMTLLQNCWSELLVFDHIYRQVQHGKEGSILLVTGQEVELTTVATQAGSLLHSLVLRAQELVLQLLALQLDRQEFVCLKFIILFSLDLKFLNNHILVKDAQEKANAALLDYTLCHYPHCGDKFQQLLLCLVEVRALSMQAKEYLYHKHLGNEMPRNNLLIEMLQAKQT

With `CCOC(=O)N1CCC(N2CCCC(C(=O)c3ccccc3OC)C2)CC1` (stereo not drawn), the EC50 (commonly the concentration that produces a half-maximal response) in [1] is 41.2 µM (inactive); at Mu-type opioid receptor it was 92.5 µM (inactive).

On to `CN(Cc1ccccc1F)C(=O)CN1c2cccc3cccc(c23)S1(=O)=O`, for which the IC50 is 41 µM (inactive) in experiment [2] and 47.1 µM (inactive) in experiment [3].

On to `N#Cc1cccc(NC(=O)COC(=O)c2ccccc2C(=O)c2ccc(Cl)c([N+](=O)[O-])c2)c1`, for which the EC50 in experiment [4] was 5.27 µM (inactive). In addition, the IC50 in experiment [5] is 1.99 µM (active).

On to `O=C(NCc1ccccn1)c1ccc2c(=O)n3nc(Nc4ccccc4)sc3nc2c1`, for which the figures for the IC50 in experiment [6] and in experiment [7] were > 66.6 µM (inactive) and 8.94 µM (active), respectively.

`COc1ccc(CCNC(=O)CSc2nc3nc(O)cc(O)c3s2)cc1`: the values for the IC50 (in experiment [8]; at Steroidogenic factor 1; in experiment [9]) were 97.8 µM (inactive), 6.9 µM (active) and 35.9 µM (inactive), respectively.

Take `NC(c1csc(Nc2ccc(C(=O)c3ccccc3)cc2)n1)C1CCCCC1` (stereo not drawn): the concentration at half-maximal activity (AC50) – broadly, the midpoint of the concentration-response curve, whichever way the signal moves – in experiment [10] was 26.6 µM (active).

For the molecule `CCCN(CC(=O)Nc1ccccc1C)C(=O)C1CCN(S(=O)(=O)c2ccc(C)c(C)c2)CC1`, in the experiment with Vero, the AC50 was 13.2 µM (active).

Values taken from ChEMBL document CHEMBL1201862, “PubChem BioAssay data set” (2004).
